Measured values reported in patent US20110224221A1, “HEMATOPOIETIC PROTECTION AGAINST IONIZING RADIATION USING SELECTIVE CYCLIN-DEPENDENT KINASE 4/6 INHIBITORS” (priority 2008, published 2011).
“Also recorded” adds a separate entry of the source.

Experiments:
[1] = system: human melanoma cell line WM2664; test: Cell cycle analysis (BrdU incorporation in vitro), WM2664; assay type: cell-based; conditions: for cell cycle effect: WM2664, 24 hours exposure
Excerpt: (§1) FIG. 3A is a set of graphs showing the dose-response curves for cycle analysis in both cyclin-dependent kinase 4/6 (CKD4/6)-dependent cells (human telomerized human diploid fibroblasts (tHDFs, left-hand column of graphs) and a CDK4/6-dependent human melanoma cell line (WM2664, middle column of graphs)) and in CDK4/6-independent cells (a human retinoblastoma tumor suppressor protein (RB)-null melanoma cell line (A2058), right-hand column of graphs). […] The percentage of cells in the G1 phase is indicated by the data shown in the open triangles, while the percentage of cells in the S phase is shown by the data in the shaded circles and the percentage of cells in the G2/M phase is indicated by the data in the double “x”s.
FIG. 8 is a set of representative cell cycle dot-plots for cyclin-dependent kinase 4/6 (CDK4/6)-dependent (WM2664) human melanoma cells (top two rows) and CDK4/6-independent (A2058) human melanoma cells (bottom two rows) that had been treated with dimethyl sulfoxide (DMSO) as a control or with 300 nM, 1 μM, 3 μM, 10 μM or 30 μM of trans-4-[[6-ethylamino)-2-[[2-phenylmethyl)-1H-indol-5-yl]amino]-4-pyrimidinyl]amino]]-cyclohexanol (CINK4).
(§2) Cell Lines: KPTR1, KPTR4. and KPTR5 were derived from tumor-bearing TyrRAS+Ink4a/Arf−/− by standard procedures and cultured in RPMI+10% fetal bovine serum (FBS). Telomerized HDFs (tHDFs, also known as HS68) were cultured in DMEM+10% FBS with penicillin and streptomycin. The same conditions were used for A2058 and WM2664, human melanoma cell lines with known RB-pathway mutations: A2058 is RB-null, whereas WM2664 lacks p16^INK4a/Arf. See Shields, et al., Cancer Res., 67, 1502-1512 (2007). Cells were irradiated for indicated doses in a Rad Source Inc. (Alpharetta, Ga., United States of America) RS-2000 Biological Irradiator at 160 kV, 25.0 mA, at distance setting 1, with a dose rate of 103 rads/min.
(§3) BrdU Incorporation in vitro: Cells were plated and allowed to adhere overnight or at least 6 hours prior to adding CDK4/6 inhibitor at the indicated concentrations. Cells were grown for 24 hours in the presence of CDK4/6 inhibitor. 15 minutes prior to cell harvesting, 5-Bromo-2-deoxyuridine (BrdU) was added to the media at a final concentration of 10 μM. The cells were then washed, trypsinized, pelleted, fixed, permeabilized, stained, and measured on a flow cytometer as described in manufacturer directions for the BrdU Kit (BD Biosciences Pharmingen, San Diego, Calif., United States of America).
(§4) The proliferation of seven RB-deficient human small cell lung cancer lines was also resistant to the selective CDK4/6 inhibitors.

[2] = system: telomerized human diploid fibroblasts (tHDF); test: Cell cycle analysis (BrdU incorporation in vitro), tHDF; assay type: cell-based; conditions: 24 hours exposure
Excerpt: as §1, §2, §3, §4

tHDF (HS68) cells = test: Clonogenic assay after IR, tHDF (HS68); assay type: cell-based, human; conditions: PD0332991 100 nM, 2BrIC 2 μM, CINK4 6 μM, IR 0-9 Gy
Procedure: FIG. 6A is a set of micrograph images of crystal violet stained cell cultures of cyclin-dependent kinase 4/6 (CDK4/6)-dependent cells (HS68) plated at different cell/well ratios and treated with either dimethyl sulfoxide (DMSO) as a negative control or with the selective CDK4/6 inhibitor 2-bromo-12,13-dihydro-5H-indolo[2,3-a]pyrrolo[3,4]carbazole-5,6-dione (2BrIC) at 2 μM for 24 hours prior to exposure to ionizing radiation at 0, 1.5, 3, 6, or 9 gray (Gy), as indicated.
Data plotted is the area/cell ratio of PD0332991 treated cells to dimethyl sulfoxide (DMSO) treated cells. Error bars show standard error of the mean.
FIG. 9A is a set of micrograph images of cell cultures of cyclin-dependent kinase 4/6 (CDK4/6)-dependent cells (HS68) plated at different cell/well ratios and pretreated with either dimethyl sulfoxide (DMSO) as a control or with the nonselective CDK4/6 inhibitor trans-4-[[6-ethylamino)-2-[[1-phenylmethyl)-1H-indol-5-yl]amino]-4-pyrimidinyl]amino]]-cyclohexanol (CINK4) at 6 μM for 24 hours prior to exposure to ionizing radiation at 0, 1.5, 3, 6, or 9 gray (Gy), as indicated. The plates were stained with crystal violet to visualize cell colonies.
Clonogenic Assay: The clonogenic assay was performed as previously described (see Franken et al., Nature protocols, 1, 2315-1319 (2006)) with cells plated in a six-well plate at least 6 hours prior to treatment with CDK inhibitor for 24 hours, with 6 Gy IR occurring 12 hours after initiation of CDK inhibitor exposure. Cells were grown for 16 days, washed, fixed, and stained with crystal violet. Plates were then imaged using an Odyssey infrared scanner (Li-Cor Biosciences, Lincoln, Nebr., United States of America) and quantified using the accompanying software.

[3] = system: RB-null melanoma line A2058; test: Cell cycle analysis (BrdU incorporation in vitro), A2058; assay type: cell-based, human; conditions: A2058, concentrations between 300 nM and 30 μM
Excerpt: FIG. 3A is a set of graphs showing the dose-response curves for cycle analysis in both cyclin-dependent kinase 4/6 (CKD4/6)-dependent cells (human telomerized human diploid fibroblasts (tHDFs, left-hand column of graphs) and a CDK4/6-dependent human melanoma cell line (WM2664, middle column of graphs)) and in CDK4/6-independent cells (a human retinoblastoma tumor suppressor protein (RB)-null melanoma cell line (A2058), right-hand column of graphs). […] The percentage of cells in the G1 phase is indicated by the data shown in the open triangles, while the percentage of cells in the S phase is shown by the data in the shaded circles and the percentage of cells in the G2/M phase is indicated by the data in the double “x”s. […]
BrdU Incorporation in vitro: Cells were plated and allowed to adhere overnight or at least 6 hours prior to adding CDK4/6 inhibitor at the indicated concentrations. […] The cells were then washed, trypsinized, pelleted, fixed, permeabilized, stained, and measured on a flow cytometer as described in manufacturer directions for the BrdU Kit (BD Biosciences Pharmingen, San Diego, Calif., United States of America). […]

Compound | cell cycle effect [1] | cell cycle effect [2] | substantially pure G1 arrest ([1]; WM2664, concentrations between 300 nM and 30 μM) | clonogenic cell survival after IR (area/cell ratio relative to DMSO) (tHDF (HS68) cells) | substantially pure G1 arrest [3]
CN1CC[C@H](c2c(O)cc(O)c3c(=O)cc(-c4ccccc4Cl)oc23)[C@H](O)C1 [flavopiridol] | G2/M block, intra-S arrest, or cell death (sub-GO) | G2/M block, intra-S arrest, or cell death (sub-GO) |  |  | 
COc1ccc(F)c(F)c1C(=O)c1cnc(NC2CCN(S(C)(=O)=O)CC2)nc1N [Compound 7] | G2/M block, intra-S arrest, or cell death (sub-GO) | G2/M block, intra-S arrest, or cell death (sub-GO) |  |  | 
CCNc1cc(N[C@H]2CC[C@H](O)CC2)nc(Nc2ccc3c(ccn3Cc3ccccc3)c2)n1 [CINK4] |  |  | did not induce a substantially pure (i.e. “clean”) G1 arrest | failed to enhance cell survival; also recorded: lack of enhanced cell survival | did not induce a substantially pure (i.e. “clean”) G1 arrest
CC[C@H](CO)Nc1nc(NCc2ccccc2)c2ncn(C(C)C)c2n1 [roscovitine, Roscovitine] | G2/M block, intra-S arrest, or cell death (sub-GO) | G2/M block, intra-S arrest, or cell death (sub-GO) |  |  | 
